Experimental data: patent US20230149504A1, “A[…] USE IN HUMAN VIRAL INFECTIONS” (DEBIOPHARM INTERNATIONAL SA, priority 2020, published 2023)

What was measured:
[1] = system: clinical isolate of SARS-CoV-2
[2] = system: SARS-Cov-1; details: cited from earlier work
[3] = in vitro; details: African green monkey
[4] = in vitro; details: African green monkey; remark: listed apart in the source
[5] = system: SARS-CoV-2; experiment: Example 1B: immunofluorescence (anti-dsRNA) quantification of SARS-CoV-2-infected Vero E6 cells; format: cell-based; details: at 10 μM, MOI 0.4, 24 h (FIG. 3)
Description: FIG. 3 represents the experiment scheme of a SARS-CoV-2 infection of Vero E6 cells at an MOI of 0.4 and the percentage of infected cells assessed by immunofluorescence (IF) in the presence of increasing concentrations of alisporivir.
The anti-SARS-CoV-2 effectiveness of alisporivir was confirmed by immunofluorescence. Vero E6 cells were infected by SARS-CoV-2 at an MOI of 0.4 for 2 h in the presence of increasing concentrations of alisporivir (1, 5 and 10 μM). After virus removal, infected cells were incubated for 24 h in the presence of alisporivir and immunostained with an anti-double-stranded-RNA (dsRNA) antibody. Infected cells were quantified using ImageJ software.

[6] = system: VeroE6 cells
[7] = system: SARS-Cov-2 (isolate from patient infected in Paris)

In the case of `C/C=C/C[C@@H](C)[C@@H](O)[C@H]1C(=O)N[C@@H](CC)C(=O)N(C)[C@H](C)C(=O)N(CC)[C@@H](C(C)C)C(=O)N[C@@H](C(C)C)C(=O)N(C)[C@@H](CC(C)C)C(=O)N[C@@H](C)C(=O)N[C@H](C)C(=O)N(C)[C@@H](CC(C)C)C(=O)N(C)[C@@H](CC(C)C)C(=O)N(C)[C@@H](C(C)C)C(=O)N1C` [alisporivir, [D-MeAla]3-[EtVal]4-CsA], the “maximum viral RNA reduction” value [1] is reported as 2 log 10, the therapeutic index ([1]; clinical isolate of, 2 h) is reported as “more than 43” and the EC50 ([1]; clinical isolate of, 48 h) is reported as 460 nM. The EC90 ([1]; clinical isolate of, 48 h) was 3100 nM, the “fold higher EC50 against SARS-Cov-1 than for HCV replicon” value [2] was 10.-50 fold and the EC50 ([2]; read-out: EC50 in vitro against different SARS-Cov-1) was 2000 to 10000 nM. The CC50 [3] was > 20000 nM, the selectivity ratio [4] was > 37 and the “inhibition of the number of SARS-CoV-2-infected cells (immunofluorescence)” value [5] was “complete inhibition”. The cytotoxicity [6] was “not cytotoxic”, the EC50 [7] was 540 nM and the “percentage of inhibition of SARS-CoV-2 RNA production in cell culture supernatant” value [7] was > 90%.
